In patent US5378844A, “8-(1-aminocycloalkyl)-1,3-dialkylxanthine derivatives, preparation process and antidepressant, nootropic and psychostimulant composition thereoff” (Biomedica Foscama Industria Chimico-Farmaceutica S.p.A., priority 1992, dated 1995):
Like-named read-outs stand apart in the source and are kept apart here.

Tests used:
[1] = test system: White male CD 1 (Charles River) mice; assay: Nootropic activity: "Passive avoidance" test (amnesia induced by scopolamine); type: in vivo; settings: scopolamine 2 mg/kg i.p.
[2] = test system: Male Wistar (Charles River) rats; assay: Locomotor activity: "Activity cage" test; type: in vivo; settings: Rattus norvegicus, ip, read-out: DE50 (ED50 for % increase of spontaneous motion activity)
Source text: This test allows the spontaneous locomotor activity of the animal to be studied. Male Wistar (Charles River) rats weighing 150-250 g were used. […] The printer connected to the system records the number of movements performed by the rats within the first 5' from the moment they enter the cage.

[3] = test system: White male CD 1 (Charles River) mice; assay: Antidepressant activity: "Behavioral despair" test (Porsolt); type: in vivo; settings: relative to control group
Procedure: The test described in R. D. Porsolt et al., Arch.Int.Pharmacodyn. 229, 327 (1977), which allows the antidepressant activity of a drug to be evaluated on an animal placed in an unusual, stress-causing environment, such as the water environment, was carried out. White male CD 1 (Charles River) mice weighing 24-35 g were used.
1 h before the immersion in water, the animal is administered the test compound by the intraperitoneal (i.p.) route. […] As the reference substances the xanthines theophylline and caffeine, the nootropically acting drug oxiracetam and the tricyclic antidepressant desipramine were included.

[4] = test system: Male white CD 1 (Charles River) mice; assay: Antidepressant activity: antagonism to reserpine (hypothermia induced by reserpine); type: in vivo; settings: 4 h after reserpine 2.5 mg/kg i.p.
Procedure: Male white CD 1 (Charles River) mices weighing 23-35 g were used. Before every test, the basal rectal temperature of every mouse is registered. […] The rectal temperature is measured again at t=O and 30', 60', 90' and 120' after administration of the drug.

adenosine A2 receptors = biological target: T1, adenosine A2 receptors (Rattus norvegicus, UniProt P30543); assay: Binding to the adenosine A2 receptors, (3H)-NECA + 50 nM CPA, synaptosomal membranes from rat brain; settings: 4 nM (3H)-NECA and 50 nM CPA, 1 h at 25° C., Ki from IC50 via Cheng-Prusoff
T1 construct: preparations of sinaptosomial membranes from rat brain; from tissue; host or cells: rat brain synaptosomal membranes
T1 sequence (P30543 whole entry): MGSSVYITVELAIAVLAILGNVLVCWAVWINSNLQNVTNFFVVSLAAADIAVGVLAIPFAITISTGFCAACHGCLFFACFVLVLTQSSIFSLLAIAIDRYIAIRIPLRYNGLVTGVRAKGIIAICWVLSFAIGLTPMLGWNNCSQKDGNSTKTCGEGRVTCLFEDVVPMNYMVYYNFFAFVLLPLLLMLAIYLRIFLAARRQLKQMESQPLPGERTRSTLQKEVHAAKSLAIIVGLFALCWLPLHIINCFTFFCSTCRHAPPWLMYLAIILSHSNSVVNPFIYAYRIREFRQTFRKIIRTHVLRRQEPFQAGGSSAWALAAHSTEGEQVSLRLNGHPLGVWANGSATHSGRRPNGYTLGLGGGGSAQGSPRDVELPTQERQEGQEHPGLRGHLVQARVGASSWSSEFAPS
Procedure: The receptor binding tests were carried out on preparations of sinaptosomial membranes from rat brain.
200 μg of membrane proteins were incubated for 1 h at 25° C. with the test substance and 0.3 nM (3H)-DPCPX in 400 μl of 50 mM tris-HCl pH=7.4. The non-specific binding was determined with 20 μM R-PIA. The binding to the A2 receptors was carried out by incubating 200 μg of membrane proteins for 1 h at 25° C. with the test substance, 4 nM (3H)-NECA and 50 nM CPA. The non-specific binding was determined with 200 μM CPA.
(§1) The incubations were blocked by centrifugal methods and the separation of the bound from free material was carried out, followed by determination of the contained radioactivity by liquid scintillation. The dosis-inhibition curves were obtained by assaying the receptor displacement at 14 different concentrations of the test substance (all the tests are carried out in triplicate). The tested substances were dissolved into dimethylsulfoxide and diluted in 50 mM Tris-HCl, buffer pH=7.4. The IC50 values were determined by means of non-linear regression curves and transformed into Ki values according to the Cheng-Prusoff equation.

adenosine A1 receptors = biological target: T2, adenosine A1 receptors (Rattus norvegicus, UniProt P25099); assay: Binding to the adenosine A1 receptors, (3H)-DPCPX displacement, synaptosomal membranes from rat brain; settings: for Ki: rat brain synaptosomal membranes, 0.3 nM (3H)-DPCPX, 1 h at 25° C., pH 7.4, Ki from IC50 via Cheng-Prusoff
T2 construct: preparations of sinaptosomial membranes from rat brain; from tissue; host or cells: rat brain synaptosomal membranes
T2 sequence (P25099 1-326): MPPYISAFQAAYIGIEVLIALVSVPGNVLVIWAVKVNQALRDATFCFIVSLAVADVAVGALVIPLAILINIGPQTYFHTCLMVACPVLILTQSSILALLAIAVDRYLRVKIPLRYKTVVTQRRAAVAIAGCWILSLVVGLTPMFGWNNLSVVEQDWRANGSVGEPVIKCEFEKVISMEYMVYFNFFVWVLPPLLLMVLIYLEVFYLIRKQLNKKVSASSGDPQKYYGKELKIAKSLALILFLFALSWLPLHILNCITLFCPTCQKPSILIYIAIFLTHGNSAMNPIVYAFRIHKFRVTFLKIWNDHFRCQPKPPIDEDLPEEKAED
Procedure: as §1, with “The receptor binding tests were carried out on preparations of sinaptosomial membranes from rat brain. Binding to the A1 receptors has been carried out as follows: 200 μg of membrane proteins were incubated for 1 h at 25° C. with the test substance and 0.3 nM (3H)-DPCPX in 400 μl of 50 mM tris-HCl pH=7.4. The non-specific binding was determined with 20 μM R-PIA. The binding to the A2 receptors was carried out by incubating 200 μg of membrane proteins for 1 h at 25° C. with the test substance, 4 nM (3H)-NECA and 50 nM CPA. The non-specific binding was determined with 200 μM CPA. The incubations” for “The incubations”

[5] = dose 10 (unit not given), i.p. 1 h before acquisition trial
[6] = 30' before activity cage, movements within first 5', relative to control group
[7] = 10 mg/kg i.p., 1 h before immersion

Cn1c(=O)c2[nH]c(-c3ccccc3)nc2n(C)c1=O [8-PHENYLTHEOPHYLINE]
ANTIAMNESIC ACTIVITY (percentage of animals that do not trespass the door) [1, 5]: 40%
ED50 [2, 6]: 6.01 mg/kg

Cn1c(=O)c2c(ncn2C)n(C)c1=O [CAFFEINE]
% VARIATION OF MOTI[…] LENGTH ([3]; 25 mg/kg (os)): -30.34%
ANTIAMNESIC ACTIVITY (percentage of animals that do not trespass the door) [1, 5]: 60%
Δ TEMPERATURE (maximum temperature variation relative to t=0) ([4]; 20 mg/kg i.p.): +1.63 °C
ED50 [2]: 4.33 mg/kg

CCCn1c(=O)c2[nH]c(C3(N)CCCC3)nc2n(CCC)c1=O [COMPOUND EX. 1, 8-(1-aminocyclopentyl)-1,3-dipropylxanthine]
% VARIATION OF MOTIONLESSNESS TIME LENGTH [3, 7]: -28.33%
% VARIATION OF MOTIONLESSNESS TIME LENGTH ([3]; 20 mg/kg i.p., 1 h before immersion): -42.93%
ANTIAMNESIC ACTIVITY (percentage of animals that do not trespass the door) [1, 5]: 80%
Δ TEMPERATURE (maximum temperature variation relative to t=0) ([4]; 10 mg/kg i.p.): +0.26 °C
Δ TEMPERATURE (maximum temperature variation relative to t=0) ([4]; 20 mg/kg i.p.): +0.71 °C
Ki (adenosine A2 receptors): 54600 nM
Ki (adenosine A1 receptors): 26 nM
SELECTIVITY (A2/A1) (adenosine A1 receptors; ratio of Ki,A2 to Ki,A1): 2100
ED50 [2, 6]: 0.492 mg/kg

CCCn1c(=O)c2[nH]c(C3(NC(=O)c4ccccc4)CCCC3)nc2n(CCC)c1=O [COMPOUND EX. 6, 8-(1-benzoylaminocyclopentyl)-1,3-dipropylxanthine]
% VARIATION OF MOTIONLESSNESS TIME LENGTH [3, 7]: -24.22%
Ki (adenosine A1 receptors): 115 nM

CCCn1c(=O)c2[nH]c(C3(NS(C)(=O)=O)CCCC3)nc2n(CCC)c1=O [COMPOUND EX. 8, 1,3-dipropyl-8-(1-methanesulfonylaminocyclopenthyl)xanthine]
Ki (adenosine A1 receptors): 166 nM

CCCn1c(=O)c2[nH]c(C3(NC(=O)OCC)CCCC3)nc2n(CCC)c1=O [COMPOUND EX. 10, 1,3-dipropyl-8-(1(N-ethoxycarbonylamino)cyclopentyl)xanthine]
Ki (adenosine A1 receptors): 108 nM

CCCn1c(=O)c2[nH]c(C3(NC(=O)CC(=O)O)CCCC3)nc2n(CCC)c1=O [COMPOUND EX. 12, 1,3-dipropyl-8-(1-emimalonamidocyclopentyl)xanthine]
Ki (adenosine A1 receptors): 6990 nM

CNCCCN1c2ccccc2CCc2ccccc21 [DESIPRAMINE]
% VARIATION OF MOTIONLESSNESS TIME LENGTH ([3]; 15 mg/kg i.p.): -24.50%
ANTIAMNESIC ACTIVITY (percentage of animals that do not trespass the door) ([1]; dose 45 (unit not given), i.p. 1 h before acquisition trial): 30%
Δ TEMPERATURE (maximum temperature variation relative to t=0) ([4]; 16 mg/kg i.p.): +1.39 °C

CNCCC=C1c2ccccc2CCc2ccccc21 [NORTRIPTYLINE]
Δ TEMPERATURE (maximum temperature variation relative to t=0) ([4]; 10 mg/kg i.p.): +2.34 °C

NC(=O)CN1CC(O)CC1=O (stereo not drawn) [OXIRACETAM]
% VARIATION OF MOTIONLESSNESS TIME LENGTH ([3]; 500 mg/kg i.p.): -29.07%
ANTIAMNESIC ACTIVITY (percentage of animals that do not trespass the door) ([1]; dose 1000 (os) (unit not given)): 40%

Cn1c(=O)c2[nH]cnc2n(C)c1=O [THEOPHYLLINE, 1,3-dimethylxanthine]
% VARIATION OF MOTI[…] LENGTH ([3]; 18.7 mg/kg (os)): -48.88%
ANTIAMNESIC ACTIVITY (percentage of animals that do not trespass the door) ([1]; dose 20 (unit not given), i.p. 1 h before acquisition trial): 30%
Δ TEMPERATURE (maximum temperature variation relative to t=0) ([4]; 20 mg/kg i.p.): +0.81 °C
ED50 [2]: ~3.75 mg/kg
